Data on three molecules can be found in US20210079358A1, “ASSEMBLOID - 3D MIMETIC TISSUE STRUCTURE BASED ON PATIENT- DERIVED MULTIPLE CELL TYPES AND METHOD OF MANUFACTURING THE SAME” (POSTECH Research and Business Development Foundation, priority 2019, published 2021).

Structures are written as SMILES. “Also recorded” adds a separate entry of the source.

Assay [1] relates to 3D bioprinted patient-derived bladder tumor organoids. Put plainly: Tumor cell apoptosis (caspase3) in 3D bioprinted patient-derived bladder tumor organoids treated with cisplatin. Type of assay: cell-based, human. Particulars: luminal and basal tumor-derived printed tumor organoids. Here is the method:
Normal bladder organoids were treated with 50 μM Vismodegib (Abmole), 100 nM SAG (Millipore) or DMSO and cultured in a spinning bioreactor for 7 days. Bladder tumor organoids were treated with 300 nM SAG, 5 μM FK506 (Cayman Chemical) or DMSO, and cultured in a spinning bioreactor for 7 days. Human bladder tumor organoids were cultured in an organoid medium for 7 days in a spinning bioreactor before treatment with chemotherapeutic drugs. Subsequently, tumor organoids were cultured for 48 hours in the presence of cisplatin (0, 0.2, 0.5, 1, 2, 5, 10, 50 and 100 μm, Sigma), gemcitabine (0, 0.2, 0.5, 1, 2, 5, 10, 50 and 100 μM, Sigma) or mitomycin C (0, 0.2, 0.5, 1, 2, 5, 10, 50 and 100 μM, Sigma). To produce dose-response curves for the three chemotherapeutic drugs, cell viability was assayed using a CellEvent™ Caspase-3/7 Green Detection Reagent (Thermo Fisher) according to the manufacturer's instructions. Forty-eight hours after treatment with cell therapeutic agent, bladder tumor organoids were fixed in 4% PFA at 4° C. for 15 minutes, washed with PBS three times, cultured in 30% sucrose overnight, and embedded in an OCT compound. Capase-3/7-stained cells in the bladder tumor organoids were counted based on green fluorescence signals, and dose-response curves were generated using GraphPad Prism ver.6. […]

Assay [2] has as its system reconstituted bladder organoids with stroma. Put plainly: Cell proliferation in reconstituted bladder organoids with stroma under Hh pathway manipulation. It counts as cell-based, mouse. Particulars: 50 μM Vismodegib or 100 nM SAG vs DMSO, 7 days. The method, then: (§1) To generate normal bladder organoids with stroma, normal bladder organoids cultured for a long time (>6 months) were mixed with mouse embryonic fibroblasts (MEFs) and endothelial cells (HULEC, ATCC) at 3.75×10^4 cells/μL and 5×10^3 cells/μL, respectively, along with 3 to 4 μL of Matrigel. Before additional analysis, these bladder organoids with stroma were cultured in an organoid medium in a spinning bioreactor for 7 days. The 12-well version of the spinning bioreactor was manufactured by 3D printing according to the method described in Qian, X. et al. Brain-Region-Specific Organoids Using Mini-bioreactors for Modeling ZIKV Exposure. Cell 165, 1238-1254, doi:10.1016/j.cell. 2016.04.032 (2016). In brief, individual components such as a plate cover (Project MJP 2500, 3D Systems, USA), a rotating shaft (Single Plus, Cubicon, Korea), a fixed rod (Single Plus, Cubicon, Korea) and a gear (Single Plus, Cubicon, Korea) were printed using a 3D printer in a stackable version, and the components were assembled to manufacture a spinning bioreactor. […]
(§2) Normal bladder organoids were treated with 50 μM Vismodegib (Abmole), 100 nM SAG (Millipore) or DMSO and cultured in a spinning bioreactor for 7 days. […] Capase-3/7-stained cells in the bladder tumor organoids were counted based on green fluorescence signals, and dose-response curves were generated using GraphPad Prism ver.6. […]

Assay [3] deals with three-layered miniature bladders. Put plainly: Cell proliferation in three-layered miniature bladders under Hh pathway manipulation. It counts as cell-based, mouse. Particulars: 50 μM Vismodegib or 100 nM SAG vs DMSO, 7 days. The method, then: as §1, §2
Assay [4] deals with patient-derived bladder tumor organoids. Nature of the assay: Growth of patient-derived bladder tumor organoids with or without tumor stroma treated with Hh or Bmp agonist. Type of assay: cell-based, human. Particulars: 300 nM SAG, 7 days.
Experimental: Tumor tissues obtained from patients were washed with DPBS, and then washed twice with DMEM supplemented with 10% FBS. The washed tumors were minced and incubated in DMEM containing 10% FBS and collagenase I and II (20 mg/mL each) at 37° C. for 1 hour and ground for 5 minutes every 30 minutes. The isolated tissues were spun down at 1,500 rpm for 5 minutes, resuspended in ACK lysis buffer, and then incubated for 5 minutes at room temperature. Dissociated clusters were washed with DMEM containing 10% FBS and filtered through a 100 μm cell strainer. The dissociated cell clusters were spun down, resuspended in Matrigel (Growth Factor reduced) and plated in the middle of one well of a 6-well plate. The plated drop was solidified in an incubator at 37° C. for 15 minutes, and a 2.5 mL organoid medium [advanced DMEM/F-12 supplemented with 10 mM HEPES (pH 7.4), 10 mM nicotinamide, 1 mM N-acetyl-L-cysteine, GlutaMAX, 1% penicillin/streptomycin, 50 ng/mL mouse EGF, 0.5×B-27, 1 mM A8301 and 10 mM Y-27632] was added to the well. The medium was replaced once every 2 to 3 days. For passaging, 1 mg/mL collagenase/dispase was added to the medium, followed by incubation for 1 hour at 37° C. to digest the Matrigel. Subsequently, organoids were centrifuged at 1,500 rpm for 3 minutes, washed with PBS, and then spun down. Then, 0.05% trypsin-EDTA (Welgene) was added, organoids were incubated at 37° C. for 5 minutes, followed by mechanical grinding into small cells by pipetting. The organoids were passaged in a 1:3 or 1:4 ratio every 1 to 2 weeks.
To generate patient-derived tumor organoids with stroma, human tumor organoids were cultured for 10 days, and mixed with stromal components containing patient-derived CAFs and HULECs at concentrations of 5×10^4 cells/μL and 4×10^3 cells/μL, respectively, in Matrigel. And then, 5 μL drops of tumor organoids with stroma were cultured in an organoid medium in a spinning bioreactor for 7 days. […]
Assay [5] deals with 3D bioprinted patient-derived bladder tumor organoids. Nature of the assay: Tumor growth of 3D bioprinted patient-derived bladder tumor organoids treated with SAG or FK506. Type of assay: cell-based, human.
Experimental: Tumor cells derived from patient-derived bladder tumor organoids were embedded in 40 μL Matrigel at a density of 5×10^5 cells/mL, and cultured in an organoid culture medium for 10 days. To prepare a bio-ink mixture for the reconstitution of tumor organoids with stroma by 3D bioprinting, 6 wells containing the embedded tumor organoids were treated with 0.5 mg/mL of a collagenase/dispase solution at 37° C. for 30 minutes, washed and centrifuged. The collected organoids were resuspended in 1 mL Matrigel (Growth Factor Reduced) containing patient-derived CAFs and HULECs at 4×10^7 cells/mL and 4×10^6 cells/mL, respectively. The reconstituted bio-ink was put into a sterilized 10 mL syringe with a 20-gauge needle, and stored on ice for less than 5 minutes before printing. A jet-type 3D printer (in vivo, Rokit, Korea) was used to reconstitute tumor organoids with stroma as described above. A G-code based script was written by Creator K software (Rokit, Korea) to print a 5×6 array of 10 μL drops. Each drop was dispensed on a parafilm at 8-mm intervals by extrusion. […]
Assay [6] relates to BBN-induced mouse bladder tumor organoids. Put plainly: Growth of BBN-induced mouse bladder tumor organoids treated with SAG or FK506. Type of assay: cell-based. Conditions: reconstituted mouse tumor organoids with stroma.

Regarding `N.N.[Cl][Pt][Cl]` [cisplatin], in assay [1] (reconstituted with tumor stroma), the “tumor cell apoptosis response” value is given as “significantly reduced”. Also, the tumor cell apoptosis entry in assay [1] (without tumor stroma) was “increased”.

As to `CS(=O)(=O)c1ccc(C(=O)Nc2ccc(Cl)c(-c3ccccn3)c2)c(Cl)c1` [Vismodegib], the results for the “proliferation of epithelial cells and stromal cells” value in assay [2] and in assay [3] were “significant decrease” and “decreases; also recorded: reduces”, respectively.

In the case of `CNC1CCC(N(Cc2cccc(-c3ccncc3)c2)C(=O)c2sc3ccccc3c2Cl)CC1` (stereo not drawn) [SAG], the “proliferation of epithelial cells and stromal cells” value in assay [2] is listed as “significant increase”; in assay [3] it was “increases”. In assay [4] (basal P-2 and P-3, in the presence of tumor stroma), the “growth of reconstituted tumor organoids of basal subtypes” value is given as “significantly reduced”. Besides, in assay [4] (basal subtype, without tumor stroma), the “response of basal subtype tumor organoids” value was “do not respond”. Moreover, in assay [4] (reconstituted luminal tumor organoids), the “response of reconstituted luminal tumor organoids” value is on record as “do not respond”. Further, the tumor growth result in assay [5] (bioprinted basal, only in the presence of stroma) is “significantly inhibited”; in assay [5] (bioprinted, luminal P-1 tumor, regardless of tumor stroma), “does not exhibit a significant change”; in assay [6], “inhibited”.
